The structures appear in SMILES notation.

Our source for the IC50 values is ChEMBL document CHEMBL4004870, “Synthesis of dihydroimidazole tethered imidazolinethiones and their activity as novel antagonists of the nuclear retinoic acid receptor-related orphan receptors (RORs)” (Bioorg Med Chem Lett, 2017).

Assay [1] concerns the target T1, Nuclear receptor ROR-gamma (Mus musculus, UniProt P51450).
T1 sequence (P51450 whole entry): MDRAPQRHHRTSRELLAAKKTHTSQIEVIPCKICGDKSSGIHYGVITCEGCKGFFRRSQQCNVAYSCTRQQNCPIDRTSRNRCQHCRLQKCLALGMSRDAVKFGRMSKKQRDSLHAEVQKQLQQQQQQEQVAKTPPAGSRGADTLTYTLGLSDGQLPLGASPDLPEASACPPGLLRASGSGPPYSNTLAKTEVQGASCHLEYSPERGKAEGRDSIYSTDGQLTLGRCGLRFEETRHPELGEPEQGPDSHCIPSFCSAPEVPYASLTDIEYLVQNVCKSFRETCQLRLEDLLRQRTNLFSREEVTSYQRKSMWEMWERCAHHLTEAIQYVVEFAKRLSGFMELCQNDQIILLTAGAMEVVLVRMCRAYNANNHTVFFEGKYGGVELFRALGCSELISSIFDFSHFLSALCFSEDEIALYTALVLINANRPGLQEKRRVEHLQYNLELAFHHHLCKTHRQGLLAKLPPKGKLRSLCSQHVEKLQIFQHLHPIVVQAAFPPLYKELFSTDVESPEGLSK
In words: Antagonist activity at mouse Gal4-fused DBD RORgamma LBD (Pro-261-end) expressed in TRex-CHOK1 cells after 20 hrs by luciferase reporter gene assay. The assay is classed as cell-based. In general terms: A reporter such as luciferase makes a cellular process visible.

The target of assay [2] is T2, Nuclear receptor ROR-beta (Rattus norvegicus, UniProt P45446).
T2 sequence (P45446 whole entry): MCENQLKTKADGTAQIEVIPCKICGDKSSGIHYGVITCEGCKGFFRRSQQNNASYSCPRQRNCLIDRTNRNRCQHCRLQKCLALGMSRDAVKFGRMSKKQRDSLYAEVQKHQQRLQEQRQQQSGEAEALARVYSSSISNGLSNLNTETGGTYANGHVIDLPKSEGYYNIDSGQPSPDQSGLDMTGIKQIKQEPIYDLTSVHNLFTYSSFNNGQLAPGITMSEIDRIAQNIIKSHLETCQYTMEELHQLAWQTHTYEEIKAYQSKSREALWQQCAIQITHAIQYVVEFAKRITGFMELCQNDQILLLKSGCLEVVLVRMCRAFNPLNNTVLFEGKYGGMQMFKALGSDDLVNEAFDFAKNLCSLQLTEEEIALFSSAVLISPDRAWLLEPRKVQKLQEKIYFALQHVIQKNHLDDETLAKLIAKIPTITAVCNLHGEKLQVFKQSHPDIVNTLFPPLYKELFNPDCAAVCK
The experiment in a line: Antagonist activity at rat Gal4-fused DBD RORbeta LBD (Pro-205-end) expressed in TRex-CHOK1 cells after 20 hrs by luciferase reporter gene assay. The assay is classed as cell-based.

Take `Fc1cccc(CC2=N[C@@H](CCCCN3C[C@H](Cc4ccccc4)N(CCc4ccccc4)C3=S)CN2)c1`: the IC50 (usually the concentration at which inhibition is half-maximal) turned out to be 6.6 µM in assay [1] and 12.4 µM in assay [2].
The corresponding values for `CCCC1=N[C@@H](CCCCN2C[C@H](Cc3ccccc3)N(CCC3CC4CCC3C4)C2=S)CN1` (stereo not given in full) are 9.3 µM and 17 µM.
The corresponding values for `CCCC1=N[C@@H](CCCCN2C[C@@H](C(C)(C)C)N(CCc3ccccc3)C2=S)CN1` are 11.8 µM and 22.3 µM.
The corresponding values for `S=C1N(CCCC[C@H]2CNC(CCC3CCCC3)=N2)C[C@H](Cc2ccccc2)N1CCc1ccccc1` are 5.6 µM and 9.1 µM.
With `COc1cccc(CC2=N[C@@H](CCCCN3C[C@H](Cc4ccccc4)N(CCc4ccccc4)C3=S)CN2)c1`, the IC50 was determined as 6.3 µM in assay [1] and 8.4 µM in assay [2].
The corresponding values for `C=CCC1=N[C@@H](CCCCN2C[C@H](Cc3ccccc3)N(CCc3ccccc3)C2=S)CN1` are 10.2 µM and 14.3 µM.
For `CC(CC1=N[C@@H](CCCCN2C[C@H](Cc3ccccc3)N(CCc3ccccc3)C2=S)CN1)c1ccccc1` (stereo not given in full), in that order: 6.5 µM and 10.9 µM.
The corresponding values for `CCCC1=N[C@@H](CCCCN2C[C@H](Cc3ccccc3)N(CCC3C4CC5CC(C4)CC3C5)C2=S)CN1` (stereo not given in full) are 7.9 µM and 10.7 µM.
In the case of `C/C=C/C1=N[C@@H](CCCCN2C[C@H](Cc3ccccc3)N(CCc3ccccc3)C2=S)CN1`, the IC50 in assay [1] amounted to 5.8 µM; in assay [2], 12.5 µM.
The corresponding values for `Fc1ccc(CC2=N[C@@H](CCCCN3C[C@H](Cc4ccccc4)N(CCc4ccccc4)C3=S)CN2)cc1` are 7.7 µM and 12.4 µM.
The corresponding values for `Cc1cccc(CC2=N[C@@H](CCCCN3C[C@H](Cc4ccccc4)N(CCc4ccccc4)C3=S)CN2)c1` are 6.3 µM and 9 µM.
For `CCCC[C@H]1CN(CCCC[C@H]2CNC(CCC)=N2)C(=S)N1CCc1ccccc1`, in that order: 10.2 µM and 17.5 µM.
`CCCC1=N[C@@H](CCCCN2C[C@H](Cc3ccccc3)N(CC3CCC(C)CC3)C2=S)CN1` (stereo not given in full): the figures for the concentration for half-maximal inhibition (IC50) in assay [1] and in assay [2] were 13.7 µM and 21.1 µM, respectively.
The corresponding values for `S=C1N(CCCC[C@H]2CNC(CC3CCCCC3)=N2)C[C@H](Cc2ccccc2)N1CCc1ccccc1` are 5.1 µM and 8.3 µM.
For `CCCC1=N[C@@H](CCCCN2C[C@H](Cc3ccccc3)N(CCCC3CCCC3)C2=S)CN1`, in that order: 6.4 µM and 10.2 µM.
